Results reported in paper PMC7815808, “Enzyme and lateral flow monoclonal antibody-based immunoassays to simultaneously determine spirotetramat and spirotetramat-enol in foodstuffs” (Scientific Reports, 2021).
pIC50: −log10 of the molar value. “And” between values parts separate entries of the source, which are not always exact repeats. Equal entries are not always repeated.

Columns and labels:
[1] = system: mAbs to SP and SP-enol; assay: Direct cELISA, binding of analytes and other pesticides by the generated mAbs; design: species or system mouse; conditions: for binding by the antibodies: other pesticides, insecticides and fungicides
From the text: Six mouse mAbs were obtained; three were from immunogen BSA‒SPm—named SPm#23, SPm#25, and SPm#216—and three from conjugate BSA‒SPo—named SPo#227, SPo#237, and SPo#243. These antibodies contained κ light chains and were of the IgG1 isotype, except mAb SPm#25 which was IgG2a. The affinity to SP and SP-enol was studied by checkerboard cELISA in the capture antibody-coated direct format, using homologous and heterologous enzyme tracers (with the same or different hapten, respectively, than the immunizing conjugate). SP and SP-enol standards were prepared in PBS (10 mM phosphate buffer, pH 7.4, with 140 mM NaCl) and tracer solutions for the competitive step were prepared in PBS-T (PBS containing 0.05% (v/v) Tween-20). […] Tracers with linker site heterologies were not bound by the antibodies. The only exception was mAb SPm#23 which did recognize the heterologous HRP‒SPh conjugate. For this antibody, the spacer arm of hapten SPh was located at a more proximal site than that of hapten […]. The lowest IC50 value with the homologous tracer was around 3 nM for SP-enol whereas binding to SP was moderate (IC50 values were higher than 30 nM).
(§1) Concerning specificity, the two assayed immunogens (BSA‒SPm and BSA‒SPo) afforded equivalent results. […] Cross-reactivity with the main SP metabolites was studied with antibody SPm#23.
(§2) Microplates were precoated with GAM in order to immobilise the mAb. The competitive step was carried out by mixing the analyte solution or diluted sample with the enzyme tracer solution. Standard curves were built in borosilicate glass tubes from 0.03 to 30 nM by a threefold serial dilution of the most concentrated standard solution, and a blank (no analyte) was also run. Concentrated stock solutions of the analytes in anhydrous DMF were used to prepare the most concentrated standard solution—the DMF concentration was always lower than 0.1% (v/v). The complete immunoassay procedure can be found in the Supplementary Information file.
(§3) Table S1. Specificity of the
(§4) 7. Direct competitive ELISA procedure
(§5) The same protocol previously described for this format was applied.7 Briefly, plates were coated with 100 µL per well of 1 µg/mL GAM solution in carbonate‒bicarbonate buffer, pH 9.6, by overnight incubation at 4 °C. Wells were washed four times with washing solution (150 mM NaCl with 0.05% (v/v) Tween-20) after each incubation step. Then, 100 µL per well of specific mAb solution in PBS-T was added and plates were incubated at room temperature during 1 h. The competitive reaction was carried out by adding 50 µL per well of analyte solution or diluted sample and 50 µL per well of tracer […]
(§6) enzyme substrate solution (2 mg/mL o-phenylendiamine and 0.012% (v/v) H2O2 in 25 mM sodium citrate and 62 mM sodium phosphate buffer, pH 5.4). Ten minutes later, the enzyme reaction was stopped by adding 100 µL per well of 1 M H2SO4.
8. Influence of pH and ionic strength […]
(§7) 7 E. Ceballos-Alcantarilla, D. López-Puertollano, C. Agulló, A. Abad-Fuentes, A. Abad-Somovilla, J. V. Mercader.
Combined heterologies for monoclonal antibody-based immunoanalysis of fluxapyroxad. Analyst 143, 5718‒

[2] = system: mAb SPm#23; assay: Antibody specificity (cross-reactivity) of the selected mAb; type: binding, mouse; conditions: for CR (%): cross-reactivity of the selected mAb, SP-enol = 100, n=3
Method: as §1, §2, §3, §4, §5, §6
8. Influence of pH and ionic strength
Figure S5. Influence of pH and ionic strength over the Amax and IC50 values of the spirotetramat-enol standard curve of the studied direct cELISA.
as §7
Combined heterologies for monoclonal antibody-based immunoanalysis of fluxapyroxad. Analyst 143, 5718‒ […]

[3] = Spirotetramat hydrolysis study by HPLC‒MS/MS; type: physicochemical; design: content found by HPLC–MS/MS, sample treatment A / content found by HPLC–MS/MS, sample treatment B / content found by HPLC–MS/MS, sample treatment C / content found by HPLC–MS/MS, sample treatment D: unit not given beside the values; conditions: for content found by HPLC–MS/MS, sample treatment A: SP hydrolysed (40 mM NaOH, 10 min, room temperature); for content found by HPLC–MS/MS, sample treatment B: SP without hydrolysis; for content found by HPLC–MS/MS, sample treatment C: SP-enol hydrolysed (40 mM NaOH, 10 min, room temperature)
Method: (§8) In order to simultaneously quantify SP and SP-enol contents in a sample, an in situ procedure for treating the sample with alkaline solution in order to hydrolyse SP into SP-enol was assessed. SP and SP-enol standard solutions were prepared in MilliQ water and diluted fivefold with 40 mM NaOH. The mixtures were incubated 10 min at room temperature and diluted twofold with dilution buffer (200 mM Tris·HCl buffer, pH 8.0, containing 280 mM NaCl). For the competitive step, enzyme tracer solutions were prepared in TBS-T (100 mM Tris·HCl buffer, pH 8.0, containing 140 mM NaCl and 0.05% (v/v) Tween-20). As shown in the inset of Table 2, the obtained standard curves of SP-enol and hydrolysed SP were almost identical. This hydrolysis procedure was validated by HPLC‒MS/MS. SP and SP-enol aqueous solutions (50 µg/mL) were treated with NaOH and, 10 min later, the pH was lowered as previously described. Then, 10 µL of hydrolysed and diluted sample was transferred into 990 µL of acetonitrile and dried with anhydrous MgSO4. Controls without the hydrolysis step were also evaluated. Finally, the contents of SP, SP-enol, SP-keto, and SP-mono in the organic extracts were quantified (Table 2). […] Those samples were also analysed with the studied direct cELISA by running SP-enol standard solutions that had been incubated in NaOH and diluted with dilution buffer like the samples. […] Consequently, the developed hydrolysis procedure seemed to perform adequately for SP and SP-enol residue quantification as SP-enol equivalents.
SP, SP-enol, SP-keto, and SP-mono standard solutions were prepared by serial dilution in acetonitrile from 1 to 2500 μg/L in amber glass vials and kept at − 20 °C. The injection volume was 5 µL and the column temperature was 45 °C. The analysis was carried out using a C18 reverse phase column with a gradient of 0.2% (v/v) formic acid in water (A) and acetonitrile (B) as mobile phase at a flow rate of 0.3 mL/min. The elution profile was 0‒3 min, from 5% B to 95% B, 3.0‒3.5 min, 95% B, 3.5‒3.6 min, from 95% B to 5% B, and 3.6‒8 min, 5% B. Spectra were acquired in positive ionization multiple reaction monitoring mode with interchannel delay of 0.02 s.

[4] = system: mAb SPm#23; assay: Optimized direct cELISA (mAb SPm#23 with tracer HRP–SPh), SP-enol standard curve; type: binding, mouse
Method: as §8
The sigmoidal inhibition curve obtained for SP-enol and the final assay conditions of the developed direct cELISA are provided in Table 3. […] The Amax value of the standard curve was near 1.0, the slope was − 1.4, and the background signal was negligible.
as §2
The absorbance of each microplate well was immediately read at 492 nm using a reference wavelength at 650 nm, and values were processed with KCJunior software from BioTek Instruments. The SigmaPlot Version 14.0 was used to fit the experimental values to a standard four-parameter logistic curve. Immunoassay sensitivity was estimated as the concentration of analyte affording a 50% decrease (IC50) of the maximum absorbance (Amax) obtained in the absence of analyte. The LOD of the assay was defined as the IC10 of the sigmoidal inhibition curve. The LOQ was experimentally determined as the lowest analyte concentration that provided accurate and precise results using fortified food samples. […]
as §4
The same protocol previously described for this format was applied.7 Briefly, plates were coated with 100 µL per well of 1 µg/mL GAM solution in carbonate‒bicarbonate buffer, pH 9.6, by overnight incubation at 4 °C. Wells were washed four times with washing solution (150 mM NaCl with 0.05% (v/v) Tween-20) after each incubation step. […]

[5] = Spirotetramat hydrolysis study by direct cELISA; type: physicochemical
Method: as §8

[6] = SPm#23 100 μg/L, HRP–SPh 30 μg/L, Tris·HCl pH 8.0, after 40 mM NaOH step, n = 5

Structure (SMILES): O=C(Nc1ccccc1-c1ccc(Cl)cc1)c1cccnc1Cl [boscalid]
- binding by the antibodies [1]: did not bind

Structure (SMILES): CO/C=C(/C(=O)OC)c1ccccc1Oc1cc(Oc2ccccc2C#N)ncn1 [azoxystrobin]
- binding by the antibodies [1]: did not bind

Structure (SMILES): CCC(C)(C)C(=O)OC1=C(c2ccc(Cl)cc2Cl)C(=O)OC12CCCCC2 [spirodiclofen]
- binding by the antibodies [1]: did not bind

Structure (SMILES): CNC(=O)/C(=N/OC)c1ccccc1COc1cc(C)ccc1C [dimoxystrobin]
- binding by the antibodies [1]: did not bind

Structure (SMILES): CC1(C(=O)Nc2ccc(O)c(Cl)c2Cl)CCCCC1 [fenhexamid]
- binding by the antibodies [1]: did not bind

Structure (SMILES): COC1CCC2(CC1)NC(=O)C(c1cc(C)ccc1C)=C2O[C@@H]1O[C@H](CO)[C@@H](O)[C@H](O)[C@H]1O (some centres unmarked) [SP-glu, spirotetramat-enol-glucoside]
- CR (%) [2]: 5.11%
- affinity to SP-enol, times higher than to the analyte ([2]; mAb SPm#23): ≥ 20 times

Structure (SMILES): Cc1cc(C2CC2)nc(Nc2ccccc2)n1 [cyprodinil]
- binding by the antibodies [1]: did not bind

Structure (SMILES): N#Cc1c[nH]cc1-c1cccc2c1OC(F)(F)O2 [fludioxonil]
- binding by the antibodies [1]: did not bind

Structure (SMILES): COC(=O)N(OC)c1ccccc1COc1ccn(-c2ccc(Cl)cc2)n1 [pyraclostrobin]
- binding by the antibodies [1]: did not bind

Structure (SMILES): c1ccc2[nH]c(-c3cscn3)nc2c1 [thiabendazole]
- binding by the antibodies [1]: did not bind

Structure (SMILES): Oc1ccccc1-c1ccccc1 [o-phenylphenol]
- binding by the antibodies [1]: did not bind

Structure (SMILES): COC1CCC2(CC1)NC(=O)C(O)(c1cc(C)ccc1C)C2=O (centres unmarked) [SP-keto, spirotetramat-ketohydroxy]
- content found by HPLC–MS/MS, sample treatment A [3]: 0.09
- content found by HPLC–MS/MS, sample treatment B [3]: 0.08
- content found by HPLC–MS/MS, sample treatment C ([3]; C): 0.39
- content found by HPLC–MS/MS, sample treatment D ([3]; D, SP-enol without hydrolysis): 0.43
- CR (%) [2]: 0.02%
- binding ([2]; mAb SPm#23): almost negligible

Structure (SMILES): CO[C@H]1CC[C@]2(CC1)NC(=O)C(c1cc(C)ccc1C)=C2O [SP-enol, spirotetramat-enol]
- LOD (μg/L) (IC10) ([4]; IC10 of the SP-enol inhibition curve, n = 5): 0.02 µg/L and 0.022 ± 0.004 µg/L
- pIC50 [4, 6]: 9.47 and 9.46
- IC50 SP-enol [4, 6]: 0.1 ng/mL and 0.104 ± 0.007 ng/mL
- IC50 value for the sum of spirotetramat and spirotetramat-enol ([4]; direct cELISA, heterologous bioconjugate): 0.1 ng/mL
- pIC50 ([1]; homologous tracer, read-out: lowest IC50 value with the homologous tracer): ~8.52
- fate on incubation in basic solution ([3]; 40 mM NaOH, 10 min, room temperature, HPLC‒MS/MS): remained unmodified
- content found by HPLC–MS/MS, sample treatment A [3]: 116.7
- content found by HPLC–MS/MS, sample treatment B [3]: 1.44
- content found by HPLC–MS/MS, sample treatment C ([3]; C): 149.1
- Recovery (%), sample treatment C ([3]; C, SP-enol hydrolysed, HPLC–MS/MS): 119.6%
- content found by HPLC–MS/MS, sample treatment D ([3]; D, SP-enol without hydrolysis): 142.8
- Recovery (%), sample treatment D ([3]; D, SP-enol without hydrolysis, HPLC–MS/MS): 114.6%
- recovery measured as SP-enol by direct cELISA ([5]; incubated in NaOH solution (samples A and C)): 117.6%
- recovery measured as SP-enol by direct cELISA ([5]; non-hydrolysed control solution (samples B and D)): 118.0%
- CR (%) [2]: 100%

Structure (SMILES): Cc1cc(C)nc(Nc2ccccc2)n1 [pyrimethanil]
- binding by the antibodies [1]: did not bind

Structure (SMILES): CSC1=N[C@@](C)(c2ccccc2)C(=O)N1Nc1ccccc1 [fenamidone]
- binding by the antibodies [1]: did not bind

Structure (SMILES): Cc1cc(C)c(C2=C(OC(=O)CC(C)(C)C)C3(CCCC3)OC2=O)c(C)c1 [spiromesifen]
- binding by the antibodies [1]: did not bind

Structure (SMILES): COC1CCC2(CC1)NC(=O)C(c1cc(C)ccc1C)C2O (centres unmarked) [SP-mono, spirotetramat-monohydroxy]
- content found by HPLC–MS/MS, sample treatment A [3]: 0.01
- content found by HPLC–MS/MS, sample treatment B [3]: 0.12
- content found by HPLC–MS/MS, sample treatment C ([3]; C): 0.02
- content found by HPLC–MS/MS, sample treatment D ([3]; D, SP-enol without hydrolysis): 0.02
- CR (%) [2]: 0.19%
- binding ([2]; mAb SPm#23): almost negligible

Structure (SMILES): CC12CC1(C)C(=O)N(c1cc(Cl)cc(Cl)c1)C2=O (centres unmarked) [procymidone]
- binding by the antibodies [1]: did not bind

Structure (SMILES): C#CCOc1ccc(CCNC(=O)C(OCC#C)c2ccc(Cl)cc2)cc1OC (centres unmarked) [mandipropamid]
- binding by the antibodies [1]: did not bind

Structure (SMILES): O=[N+]([O-])NC1=NCCN1Cc1ccc(Cl)nc1 [imidacloprid]
- binding by the antibodies [1]: did not bind

Structure (SMILES): CC1(C)[C@H](C(=O)O[C@H](C#N)c2cccc(Oc3ccccc3)c2)[C@@H]1C=C(Br)Br [deltamethrin]
- binding by the antibodies [1]: did not bind

Structure (SMILES): CC(Cc1ccc(C(C)(C)C)cc1)CN1C[C@@H](C)O[C@@H](C)C1 (some centres unmarked) [fenpropimorph]
- binding by the antibodies [1]: did not bind

Structure (SMILES): CCCOC(=O)NCCCN(C)C [propamocarb]
- binding by the antibodies [1]: did not bind

Structure (SMILES): CCCN(CC)CC1COC2(CCC(C(C)(C)C)CC2)O1 (centres unmarked) [spiroxamine]
- binding by the antibodies [1]: did not bind

Structure (SMILES): N#Cc1c(Cl)c(Cl)c(Cl)c(C#N)c1Cl [chlorothalonil]
- binding by the antibodies [1]: did not bind
